{"source": "paper PMC6675780", "about": "“Monitoring activities of receptor tyrosine kinases using a universal adapter in genetically encoded split TEV assays” (Cellular and Molecular Life Sciences: CMLS, 2019)", "key": {"PC12 cells": {"test_system": "PC12 cells", "assay": "Constitutive Renilla luciferase readout to assess toxic effects", "type": "cell-based", "settings": "split TEV dose-response assays", "procedure": "For split TEV recruitment assays in a dose–response format, the following amendments to the general protocol were made. For a dose–response assay, all cells on the plate were transfected with the same receptor-NTEV-tcs-GV and adapter-CTEV fusions, the Fluc reporter plasmid, 1 ng of a plasmid constitutively expressing Renilla luciferase driven by a thymidine kinase promoter, and the EYFPnuc expressing plasmid. Renilla luciferase was used to assess toxic effects when applying compounds. For dose-dependent stimulation testing activation, six wells per condition were stimulated using increasing concentrations of an agonist at a semi-logarithmic scale. For assays testing inhibition, cells were treated with increasing concentrations of an antagonist at a semi-logarithmic scale, followed 1 h later by the addition of an agonist at a constant concentration. […] Dose–response data were analysed using the R-based ‘drc’ package, as described before. Error bars are calculated as standard error of the mean (SEM). For ease of presentation and intuition, we have transformed conventionally used IC50 values into pIC50 values. These are calculated from IC50 values using the formula pIC50 = − log10(IC50), with units of molar for IC50 and therefore log(molar) for pIC50."}, "MET": {"target": "MET (Homo sapiens, UniProt P08581)", "assay": "Split TEV recruitment assay, MET-NTEV-tcs-GV in PC12 cells", "settings": "SH2(GRB2)-CTEV adapter, constant HGF stimulus", "quoted_text": "(§1) Split TEV recruitment assays were run in six replicates per condition in 96-well plates. 50,000 PC12 cells per well were seeded onto poly-L-lysine (PLL)-coated plates. The next day, cells were transfected with assay plasmids using Lipofectamine 2000. For transfection-based assays, no antibiotics were added to the medium. Per 96-well, a receptor-NTEV-tcs-GV fusion plasmid (10 ng), an adapter-CTEV fusion plasmid for either SHC1 (10 ng), SH2(SHC1) (10 ng), SH2(GRB2) (10 ng), SH2(mix) (10 ng), PIK3R1(50 ng), SH2(PIK3R1) (50 ng), or GRB2 (2.5 ng), and an Fluc reporter plasmid (10 ng, Fluc driven by 10x clustered upstream activating sequences coupled to a minimal CMV promoter, 10 × UAS-minCMVp) were used. […] 16 h later (day 4), the medium was removed, and cells were lysed using Passive Lysis Buffer (Promega) and luciferase activity was analysed using a dual luciferase assay (Promega) in a Mithras LB 940 Multimode Microplate Reader (Berthold Technologies). […] Error bars are calculated as standard error of the mean (SEM).\n(§2) For split TEV recruitment assays in a dose–response format, the following amendments to the general protocol were made. […] Error bars are calculated as standard error of the mean (SEM)."}, "IGF1R": {"target": "IGF1R (Homo sapiens, UniProt P08069)", "assay": "Split TEV recruitment assay, IGF1R-NTEV-tcs-GV in PC12 cells", "settings": "SH2(GRB2)-CTEV adapter, constant IGF1 stimulus", "quoted_text": "as §1, §2"}, "EGFR [1]": {"test_system": "EGFR", "settings": "Western blotting, cellular lysates, AID 770081; cited from earlier work"}, "EGFR [2]": {"test_system": "EGFR", "settings": "Biochemical, AID 1204628; cited from earlier work"}, "ERBB2": {"target": "ERBB2", "settings": "Biochemical, AID 1204629; cited from earlier work"}, "ERBB3": {"target": "ERBB3", "settings": "Biochemical, AID 1204629; cited from earlier work"}, "ERBB4 [3]": {"test_system": "ERBB4", "settings": "Biochemical, AID 1204629; cited from earlier work"}, "EGFR [4]": {"target": "EGFR (Homo sapiens, UniProt P00533)", "sequence (P00533 25-1210)": "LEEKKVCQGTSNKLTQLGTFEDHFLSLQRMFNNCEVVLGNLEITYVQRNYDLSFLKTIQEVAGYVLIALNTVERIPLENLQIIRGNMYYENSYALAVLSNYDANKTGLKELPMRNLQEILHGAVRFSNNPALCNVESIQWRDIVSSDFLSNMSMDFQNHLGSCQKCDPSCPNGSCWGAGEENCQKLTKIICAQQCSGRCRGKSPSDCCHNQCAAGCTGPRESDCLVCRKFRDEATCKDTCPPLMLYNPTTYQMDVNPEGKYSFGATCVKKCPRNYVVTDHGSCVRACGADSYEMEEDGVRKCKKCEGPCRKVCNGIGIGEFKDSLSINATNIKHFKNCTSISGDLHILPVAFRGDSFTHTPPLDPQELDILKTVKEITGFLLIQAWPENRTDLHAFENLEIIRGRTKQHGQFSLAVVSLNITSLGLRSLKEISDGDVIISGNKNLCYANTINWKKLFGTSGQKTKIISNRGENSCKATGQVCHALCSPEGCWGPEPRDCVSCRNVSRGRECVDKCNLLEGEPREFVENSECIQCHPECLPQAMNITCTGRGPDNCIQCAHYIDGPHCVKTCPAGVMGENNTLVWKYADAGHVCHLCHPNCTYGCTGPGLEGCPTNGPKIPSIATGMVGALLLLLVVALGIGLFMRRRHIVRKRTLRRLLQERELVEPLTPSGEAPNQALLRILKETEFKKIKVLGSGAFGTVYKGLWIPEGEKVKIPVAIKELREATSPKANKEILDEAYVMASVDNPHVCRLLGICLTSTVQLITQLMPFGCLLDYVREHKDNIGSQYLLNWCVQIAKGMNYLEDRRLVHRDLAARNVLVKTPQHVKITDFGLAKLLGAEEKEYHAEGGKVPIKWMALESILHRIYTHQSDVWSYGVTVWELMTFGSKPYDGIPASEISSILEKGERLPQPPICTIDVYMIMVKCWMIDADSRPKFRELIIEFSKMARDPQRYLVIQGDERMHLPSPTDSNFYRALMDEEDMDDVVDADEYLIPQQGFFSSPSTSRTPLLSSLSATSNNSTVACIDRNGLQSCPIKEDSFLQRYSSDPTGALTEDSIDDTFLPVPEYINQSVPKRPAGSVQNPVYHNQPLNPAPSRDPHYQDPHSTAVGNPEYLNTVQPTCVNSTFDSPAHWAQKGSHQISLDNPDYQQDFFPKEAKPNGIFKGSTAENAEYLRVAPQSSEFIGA", "assay": "Split TEV recruitment assay, EGFR-NTEV-tcs-GV in PC12 cells", "settings": "SH2(GRB2)-CTEV adapter, constant EGF", "quoted_text": "as §1, §2"}, "ERBB4 [5]": {"target": "ERBB4 (Homo sapiens, UniProt Q15303)", "sequence (Q15303 26-1308)": "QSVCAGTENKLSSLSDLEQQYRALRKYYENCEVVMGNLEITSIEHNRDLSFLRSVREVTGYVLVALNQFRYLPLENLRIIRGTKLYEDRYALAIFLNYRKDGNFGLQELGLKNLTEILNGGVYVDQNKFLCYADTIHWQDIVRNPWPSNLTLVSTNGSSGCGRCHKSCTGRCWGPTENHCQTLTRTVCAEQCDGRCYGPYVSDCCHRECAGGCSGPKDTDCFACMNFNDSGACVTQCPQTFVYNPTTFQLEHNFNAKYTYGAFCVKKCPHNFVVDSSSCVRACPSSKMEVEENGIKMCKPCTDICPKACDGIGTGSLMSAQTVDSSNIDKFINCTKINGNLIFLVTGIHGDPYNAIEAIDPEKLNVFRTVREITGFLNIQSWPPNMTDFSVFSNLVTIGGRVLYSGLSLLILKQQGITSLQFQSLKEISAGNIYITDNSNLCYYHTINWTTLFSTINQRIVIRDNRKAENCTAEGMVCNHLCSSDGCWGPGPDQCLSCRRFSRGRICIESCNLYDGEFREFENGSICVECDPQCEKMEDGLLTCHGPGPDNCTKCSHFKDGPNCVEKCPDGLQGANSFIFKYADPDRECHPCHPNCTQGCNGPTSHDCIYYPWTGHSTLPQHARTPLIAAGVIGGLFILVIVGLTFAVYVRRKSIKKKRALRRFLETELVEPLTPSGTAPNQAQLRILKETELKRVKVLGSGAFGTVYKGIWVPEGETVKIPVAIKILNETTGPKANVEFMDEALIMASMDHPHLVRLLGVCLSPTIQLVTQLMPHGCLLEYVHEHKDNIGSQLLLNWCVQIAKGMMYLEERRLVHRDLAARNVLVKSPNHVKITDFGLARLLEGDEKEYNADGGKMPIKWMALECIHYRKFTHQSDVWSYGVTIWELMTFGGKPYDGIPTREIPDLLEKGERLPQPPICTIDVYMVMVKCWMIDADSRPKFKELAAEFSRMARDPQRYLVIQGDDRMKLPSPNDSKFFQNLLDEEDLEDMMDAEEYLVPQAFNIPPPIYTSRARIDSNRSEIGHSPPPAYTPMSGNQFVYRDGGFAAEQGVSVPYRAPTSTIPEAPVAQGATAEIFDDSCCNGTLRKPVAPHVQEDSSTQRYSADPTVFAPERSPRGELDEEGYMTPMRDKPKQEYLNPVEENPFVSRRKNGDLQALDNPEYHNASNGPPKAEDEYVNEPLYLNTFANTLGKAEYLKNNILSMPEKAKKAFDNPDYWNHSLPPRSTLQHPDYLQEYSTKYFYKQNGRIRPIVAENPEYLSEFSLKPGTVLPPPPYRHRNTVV", "assay": "Split TEV recruitment assay, ERBB4-NTEV-tcs-GV in PC12 cells", "settings": "for Antagonistic effect on ERBB4 activity: SH2(GRB2)-CTEV adapter, PC12 cells, constant EGFld", "quoted_text": "Split TEV recruitment assays were run in six replicates per condition in 96-well plates. 50,000 PC12 cells per well were seeded onto poly-L-lysine (PLL)-coated plates. The next day, cells were transfected with assay plasmids using Lipofectamine 2000. For transfection-based assays, no antibiotics were added to the medium. Per 96-well, a receptor-NTEV-tcs-GV fusion plasmid (10 ng), an adapter-CTEV fusion plasmid for either SHC1 (10 ng), SH2(SHC1) (10 ng), SH2(GRB2) (10 ng), SH2(mix) (10 ng), PIK3R1(50 ng), SH2(PIK3R1) (50 ng), or GRB2 (2.5 ng), and an Fluc reporter plasmid (10 ng, Fluc driven by 10x clustered upstream activating sequences coupled to a minimal CMV promoter, 10 × UAS-minCMVp) were used. Additionally, 1 ng of a plasmid constitutively expressing an EYFP that is fused to nuclear localisation sequence (EYFPnuc) driven by a CMV promoter was transfected per 96-well to assess transfection efficiencies (EYFPnuc). In detail, assay plasmids were diluted in 30 µl Opti-MEM (Thermo Fisher Scientific), vortexed, and mixed with 0.2 µl Lipofectamine 2000 per well. The DNA/Lipofectamine/Opti-MEM mix was incubated for 20 min. The medium was removed from the wells and the DNA/Lipofectamine/Opti-MEM mix was added onto the cells. After 2 h of incubation, the maintenance medium without antibiotics was added to the Opti-MEM mix. On day 2, the maintenance medium was replaced by starvation medium. […] 16 h later (day 4), the medium was removed, and cells were lysed using Passive Lysis Buffer (Promega) and luciferase activity was analysed using a dual luciferase assay (Promega) in a Mithras LB 940 Multimode Microplate Reader (Berthold Technologies). […] Error bars are calculated as standard error of the mean (SEM).\nas §2"}, "ERBB2/ERBB3": {"target": "ERBB2/ERBB3 (Homo sapiens, UniProt P04626+P21860)", "sequence (P21860 20-1342)": "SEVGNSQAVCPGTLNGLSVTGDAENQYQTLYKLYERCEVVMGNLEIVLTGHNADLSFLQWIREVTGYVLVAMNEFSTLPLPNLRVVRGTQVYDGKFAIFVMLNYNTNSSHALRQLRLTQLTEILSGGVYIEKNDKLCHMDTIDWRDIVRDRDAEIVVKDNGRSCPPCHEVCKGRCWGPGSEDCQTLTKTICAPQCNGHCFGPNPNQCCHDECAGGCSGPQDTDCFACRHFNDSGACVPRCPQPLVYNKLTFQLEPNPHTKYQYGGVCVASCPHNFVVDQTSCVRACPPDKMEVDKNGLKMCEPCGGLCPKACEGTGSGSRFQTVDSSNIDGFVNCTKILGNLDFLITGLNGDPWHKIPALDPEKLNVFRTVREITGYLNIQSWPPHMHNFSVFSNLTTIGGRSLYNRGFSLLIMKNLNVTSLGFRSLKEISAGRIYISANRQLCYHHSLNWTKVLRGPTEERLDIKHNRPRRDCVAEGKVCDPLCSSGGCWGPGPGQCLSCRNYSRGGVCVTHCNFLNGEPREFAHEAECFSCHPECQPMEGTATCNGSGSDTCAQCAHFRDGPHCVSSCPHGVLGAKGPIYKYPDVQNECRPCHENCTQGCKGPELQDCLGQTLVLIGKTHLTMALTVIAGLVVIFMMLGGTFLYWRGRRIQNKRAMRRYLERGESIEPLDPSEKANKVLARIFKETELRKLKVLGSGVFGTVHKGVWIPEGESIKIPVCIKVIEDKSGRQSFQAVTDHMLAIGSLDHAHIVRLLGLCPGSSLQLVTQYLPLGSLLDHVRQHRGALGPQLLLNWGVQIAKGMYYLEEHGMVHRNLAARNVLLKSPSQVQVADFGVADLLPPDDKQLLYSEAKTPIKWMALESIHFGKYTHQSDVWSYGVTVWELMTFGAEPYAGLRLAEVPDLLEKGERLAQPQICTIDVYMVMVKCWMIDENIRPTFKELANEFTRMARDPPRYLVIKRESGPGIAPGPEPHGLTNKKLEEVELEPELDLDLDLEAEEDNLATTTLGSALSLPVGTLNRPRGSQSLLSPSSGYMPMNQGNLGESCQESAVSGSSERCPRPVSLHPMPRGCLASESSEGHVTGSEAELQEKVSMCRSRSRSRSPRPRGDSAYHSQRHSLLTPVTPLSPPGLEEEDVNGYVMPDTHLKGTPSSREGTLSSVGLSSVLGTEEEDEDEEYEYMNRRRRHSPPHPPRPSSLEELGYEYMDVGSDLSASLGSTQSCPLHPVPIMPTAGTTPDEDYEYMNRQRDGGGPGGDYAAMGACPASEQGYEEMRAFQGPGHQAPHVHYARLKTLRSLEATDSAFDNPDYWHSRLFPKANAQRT", "sequence (P04626 23-1255)": "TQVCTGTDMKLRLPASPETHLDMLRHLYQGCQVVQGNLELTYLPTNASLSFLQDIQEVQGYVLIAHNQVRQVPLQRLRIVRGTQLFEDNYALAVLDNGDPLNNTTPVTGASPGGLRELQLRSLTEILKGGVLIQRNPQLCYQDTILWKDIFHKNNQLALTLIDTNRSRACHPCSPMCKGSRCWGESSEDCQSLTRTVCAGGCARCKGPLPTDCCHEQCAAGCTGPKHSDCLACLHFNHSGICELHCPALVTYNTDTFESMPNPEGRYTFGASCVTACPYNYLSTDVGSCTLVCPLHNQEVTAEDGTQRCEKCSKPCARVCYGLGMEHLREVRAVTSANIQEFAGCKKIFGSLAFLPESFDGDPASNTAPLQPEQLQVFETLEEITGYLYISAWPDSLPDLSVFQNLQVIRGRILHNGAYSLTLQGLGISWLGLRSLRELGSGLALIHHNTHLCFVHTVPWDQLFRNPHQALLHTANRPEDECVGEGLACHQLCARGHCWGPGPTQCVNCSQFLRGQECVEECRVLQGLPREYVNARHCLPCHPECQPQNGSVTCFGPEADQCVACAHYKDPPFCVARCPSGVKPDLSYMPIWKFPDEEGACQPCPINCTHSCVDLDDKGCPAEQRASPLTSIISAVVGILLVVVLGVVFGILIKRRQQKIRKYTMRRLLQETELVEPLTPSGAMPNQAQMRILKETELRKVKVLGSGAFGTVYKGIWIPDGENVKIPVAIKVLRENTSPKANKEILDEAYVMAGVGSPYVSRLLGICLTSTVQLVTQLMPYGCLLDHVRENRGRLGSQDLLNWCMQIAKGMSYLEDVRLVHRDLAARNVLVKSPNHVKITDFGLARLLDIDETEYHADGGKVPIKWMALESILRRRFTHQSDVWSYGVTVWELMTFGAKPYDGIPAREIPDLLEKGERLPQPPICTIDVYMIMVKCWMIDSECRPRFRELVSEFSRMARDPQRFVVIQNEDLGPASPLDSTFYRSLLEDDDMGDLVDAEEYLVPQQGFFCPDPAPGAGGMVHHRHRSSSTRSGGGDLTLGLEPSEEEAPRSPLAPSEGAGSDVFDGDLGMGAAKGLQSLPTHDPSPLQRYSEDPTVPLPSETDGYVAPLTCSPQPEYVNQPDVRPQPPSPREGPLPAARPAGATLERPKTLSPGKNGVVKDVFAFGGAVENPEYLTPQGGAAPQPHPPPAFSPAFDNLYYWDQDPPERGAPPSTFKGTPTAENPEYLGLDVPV", "assay": "Split TEV recruitment assay, ERBB3-NTEV-tcs-GV with co-transfected ERBB2 in PC12 cells", "settings": "SH2(GRB2)-CTEV adapter, constant EGFld", "quoted_text": "as §1, §2"}, "ERBB4 [6]": {"test_system": "ERBB4", "set-up": "method as in PMID 28743784", "settings": "split TEV dimerisation assay; cited from earlier work"}}, "note": "Where two headings read alike, the source gives them in different places."}
{"molecule": "CS(=O)(=O)CCNCc1ccc(-c2ccc3ncnc(Nc4ccc(OCc5cccc(F)c5)c(Cl)c4)c3c2)o1", "note": "[Lapatinib, lapatinib]", "values": [{"measurement": "Concentration at which toxic effects occur (constitutive Renilla luciferase readout)", "setting": "PC12 cells", "result": 30, "unit": "µM"}, {"measurement": "Inhibition of MET activity", "setting": "MET", "result": "did not inhibit"}, {"measurement": "Inhibition of IGF1R activity", "setting": "IGF1R", "result": "did not inhibit"}]}
{"molecule": "C=CC(=O)Nc1cccc(Oc2nc(Nc3ccc(N4CCN(C)CC4)cc3OC)ncc2Cl)c1", "note": "[WZ4002]", "values": [{"measurement": "pIC50", "setting": "EGFR [1]", "result": 5.93}, {"measurement": "pIC50", "setting": "EGFR [2]", "result": 7.79}, {"measurement": "IC50 (nM)/KD", "setting": "ERBB2", "result": 0.42, "unit": "nM"}, {"measurement": "pIC50", "setting": "ERBB2", "result": 9.37}, {"measurement": "IC50 (nM)/KD", "setting": "ERBB3", "result": 0.42, "unit": "nM"}, {"measurement": "pIC50", "setting": "ERBB3", "result": 9.37}, {"measurement": "pIC50", "setting": "ERBB4 [3]", "result": 9.37}]}
{"molecule": "COc1cc2c(Oc3ccc(NC(=O)C4(C(=O)Nc5ccc(F)cc5)CC4)cc3F)ccnc2cc1OCCCN1CCOCC1", "note": "[foretinib]", "values": [{"measurement": "Concentration at which toxic effects occur (constitutive Renilla luciferase readout)", "setting": "PC12 cells", "result": 30, "unit": "µM"}]}
{"molecule": "C[C@]12CCC(=O)C=C1C=C[C@@H]1[C@@H]2CC[C@@]2(C)[C@H]1CC[C@@]21CCC(=O)O1", "note": "[canrenone]", "values": [{"measurement": "Antagonistic effect on EGFR activity", "setting": "EGFR [4]", "result": "did not exhibit any antagonistic effects"}, {"measurement": "Antagonistic effect on ERBB4 activity", "setting": "ERBB4 [5]", "result": "did not exhibit any antagonistic effects"}, {"measurement": "Antagonistic effect on ERBB2/ERBB3 activity", "setting": "ERBB2/ERBB3", "result": "did not exhibit any antagonistic effects"}]}
{"molecule": "CC(=O)S[C@@H]1CC2=CC(=O)CC[C@]2(C)[C@H]2CC[C@@]3(C)[C@@H](CC[C@@]34CCC(=O)O4)[C@H]12", "note": "[Spironolactone, spironolactone]", "values": [{"measurement": "Selectivity among ERBB receptors", "setting": "ERBB4 [6]", "result": "selectivity for ERBB4 over EGFR"}, {"measurement": "Antagonistic effect on EGFR activity", "setting": "EGFR [4]", "result": "inhibited"}, {"measurement": "Antagonistic effect on ERBB4 activity", "setting": "ERBB4 [5]", "result": "inhibited"}, {"measurement": "Selectivity among ERBB receptors", "setting": "ERBB4 [5]; split TEV recruitment assays, SH2(GRB2) adapter", "result": "some selectivity for ERBB4 over EGFR"}, {"measurement": "Antagonistic effect on ERBB2/ERBB3 activity", "setting": "ERBB2/ERBB3", "result": "inhibited"}]}
{"molecule": "C[C@]1(O)C[C@@H](c2nc(-c3ccc4ccc(-c5ccccc5)nc4c3)c3c(N)nccn32)C1", "note": "[linsitinib]", "values": [{"measurement": "Concentration at which toxic effects occur (constitutive Renilla luciferase readout)", "setting": "PC12 cells", "result": 30, "unit": "µM"}, {"measurement": "Inhibition of IGF1R activity", "setting": "IGF1R", "result": "efficiently inhibited"}]}
